Like-named read-outs stand apart in the source and are kept apart here.

These results are taken from PMC12350525, “Investigation of the inhibitory effects of the telomere-targeted compounds on glutathione S-transferase P1” (Naunyn-Schmiedeberg's Archives of Pharmacology, 2025).

In one assay the target is T1, recombinant human GSTP1 (Homo sapiens, UniProt P09211).
T1 construct: made in house; host or cells: E. coli XL-1 Blue
The assay is described as follows: GSTP1 enzyme inhibition assay (GSH-CDNB conjugation, spectrophotometric). The class given is biochemical. Here is the method: Glutathione S-transferase P1 (GSTP1) plays a significant role in cancer progression and chemotherapy resistance, with its overexpression diminishing chemotherapeutic efficacy across various tumor types. […] Enzyme inhibition assays with recombinant human GSTP1, kinetic analysis, molecular docking, and molecular dynamic simulations were employed. Enzymatic assays were performed in 0.1 M phosphate buffer (pH 6.5) at 30 °C, containing 1 mM EDTA, 1 mM GSH, and 1 mM CDNB. […] Graphical abstract
The human GST P1-1 gene from a K562 erythroleukemia cDNA library (GSTP1*A allele) was cloned into the pKXHP1 plasmid. This plasmid was transformed into E. coli XL-1 Blue cells via heat shock, grown on agar plates, and a single colony was cultured overnight at 37 °C in 2YT medium. […]
The enzyme activity of GSTP1 was measured using a spectrophotometric assay based on the conjugation of glutathione (GSH) to 1-chloro-2,4-dinitrobenzene (CDNB). […] The progress of the reaction was monitored by measuring the absorbance change at 340 nm, indicating the formation of the GSH-CDNB conjugate. Absorbance readings were recorded over 5 min using a SpectraMax M2 microplate reader. Percentage inhibition at each concentration was calculated, and IC₅₀ values were determined using GraphPad Prism 8.4. […]

The target in another assay is T2, GSTP1-1 (Homo sapiens, UniProt P09211).
T2 construct: made in house; host or cells: E. coli XL-1 Blue
T2 sequence (P09211 whole entry): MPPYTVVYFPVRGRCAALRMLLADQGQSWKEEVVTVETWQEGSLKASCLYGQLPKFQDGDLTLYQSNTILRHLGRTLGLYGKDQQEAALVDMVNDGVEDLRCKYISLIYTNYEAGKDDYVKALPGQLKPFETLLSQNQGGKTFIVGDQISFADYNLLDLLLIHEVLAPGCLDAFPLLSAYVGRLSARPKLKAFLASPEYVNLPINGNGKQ
The assay can be described thus: Kinetic inhibition studies with GSTP1 (Lineweaver-Burk, varied GSH or CDNB). In kind it is biochemical. Here is the method:
To assess the inhibition type and calculate the inhibition constant (Ki) values for the compounds, kinetic inhibition studies were performed with GSTP1.
By varying the concentration of one substrate while keeping the other at near-saturation, we assessed how each inhibitor interacted with GSTP1 under various substrate conditions. Lineweaver-Burk plots were used to analyze these interactions, allowing for the determination of the inhibition type (e.g., competitive, non-competitive, or mixed) and the Ki values for each compound. These kinetic parameters were calculated using GraphPad Prism, providing a comprehensive understanding of how the inhibitors influence GSTP1 enzymatic activity.
These plots were generated by varying the concentrations of substrates GSH and CDNB with different inhibitor concentrations.

In a further assay the test system is GSTP1. As to conditions: covalent binding to tyrosine residues on GSTP1; ref Louie et al. 2016; cited from earlier work.
Setting [1] is: CDNB as varied substrate, GSH near-saturating, read-out: Ki CDNB.
Setting [2] is: GSH as varied substrate, CDNB near-saturating, read-out: Ki GSH.

T1 sequence (P09211 whole entry): as above

The IC50 is the midpoint of a concentration-inhibition curve. For orientation: Ki means the dissociation constant of the complex between target and ligand, obtained from inhibition or displacement. Consider `Nc1nc(SSc2nc(N)nc3c2ncn3C2CC(O)C(CO)O2)c2ncn(C3CC(O)C(CO)O3)c2n1` (stereo not drawn) [6-thio-2′-dG-Dimer], for which the IC50 on recombinant human GSTP1 (as restated in the discussion) worked out at 339 nM. Moreover, on GSTP1-1 (CDNB as varied substrate), the “Type of inhibition CDNB” value was “Competitive”. The Ki on GSTP1-1 (setting [1]) amounted to 723 nM; at GSTP1-1 (setting [2]) it was 972 nM. Also, the “Type of inhibition GSH” value at GSTP1-1 (GSH as varied substrate) was “Mixed”; on GSTP1-1 (GSH as varied substrate, listed as dimer form), “mixed-type”.

Consider `Nc1nc2c(ncn2[C@H]2C[C@H](O)[C@@H](CO)O2)c(=S)[nH]1` [Compound 6-thio-dG, 6-thio-2′-deoxyguanosine], for which the IC50 at recombinant human GSTP1 (0.1 M phosphate buffer pH 6.5, 30 °C, 1 mM EDTA, 1 mM GSH, 1 mM CDNB, 2.5% DMSO) is 15100 nM. The “Type of inhibition CDNB” value on GSTP1-1 (CDNB as varied substrate) is given as “mixed-type”. Besides, the results for the Ki on GSTP1-1 (setting [1]) and on GSTP1-1 (setting [2]) were 11400 nM and 12300 nM, respectively. Moreover, on GSTP1-1 (GSH as varied substrate), the “Type of inhibition GSH” value was “Noncompetitive”.

In the case of `C#CCCCN(c1nc(Cl)nc(Cl)n1)[C@H](CC(C)C)C(=O)OC` [LAS17], the IC50 with GSTP1 was 500 nM.
